Source: patent US11970512B2, “Amphotericin B derivatives with improved therapeutic index” (The Board of Trustees of the University of Illinois, priority 2013, dated 2024)
≈ marks a conversion by molar mass, not a printed value. Read-outs that look alike come from different tables or passages of the source. One block for each compound: values may come before it.

Key:
[1] = test system: Saccharomyces cerevisiae; test: Broth microdilution assay (MIC) against Saccharomyces cerevisiae; assay type: cell-based; details: read-out: MIC (μM) S.cerevisiae
Experimental: (§1) With efficient access to this novel AmB chemotype, ureas 2-4 were compared to AmB and a range of previously reported AmB derivatives in an in vitro antifungal and human cell toxicity screen. Yeast toxicity was measured with broth microdilution assays (MIC) against Saccharomyces cerevisiae. Human cell toxicity was studied by determining the amount of compound required to cause 90% hemolysis of human erythrocytes (EH90). […] Methyl esterification (AmBME) retains antifungal activity at 0.25 μM against S. cerevisiae, while decreasing hemolysis concentration to one third that seen with AmB. […] Hemolysis activity remained similar to AmBME and C41MeAmB. Bis-amino alkylated amide derivative AmBNR2 was previously shown to moderately improve the therapeutic index.^[19]
(§2) Each derivative proposed herein is tested for biological activity against both yeast and human cells to determine its therapeutic index. A broth microdilution experiment determines the MIC (minimum inhibitory concentration) of each derivative against S. cerevisiae and the clinically relevant C. albicans, thereby establishing the antifungal activity of each novel derivative. To test for toxicity against human cells, each compound is exposed to a hemolysis assay against red blood cells which determines the concentration required to cause 90% lysis of human red blood cells (EH90). Additionally, each compound is exposed to human primary renal tubule cells to determine the toxicity of each compound against kidney cells. These assays when compared against the known values of AmB against the same cell lines determine the improvement in therapeutic index of each compound.

[2] = test system: Candida albicans; test: Broth microdilution assay (MIC) against C. albicans; assay type: cell-based; details: read-out: MIC (μM) against C. albicans
Experimental: Urea derivatives 2-4 maintain potent antifungal activity ranging from 0.125 μM to 3 μM against S. cerevisiae. […] AmBCU required 324 μM to cause 90% hemolysis in red blood cells, more than 30× required by AmB. Encouraged by this initial therapeutic index screen the urea series was further tested against the clinically relevant fungal cell line Candida albicans. C. albicans is the most common human fungal infection. AmB inhibits yeast grown of C. albicans at 0.25 μM. Similar to the trend seen with S. cerevisiae, the potency of urea derivatives […] increased with increasing amount of cationic character. AmBAU, AmBMU, and AmBCU require 0.25, 0.5, and 1 μM respectively (Table 2).
as §2

[3] = Acute toxicity, single intravenous administration to healthy mice, lethality; assay type: in vivo
Experimental: FIG. 40 is a graph depicting lethality in healthy mice of single intravenous administration in the doses indicated of AmB, AmBMU, or AmBAU.
In a separate set of experiments, acute toxicity was evaluated by single intravenous administration of 1, 2, 4, 8, 16, 32, or 64 mg/kg AmB or its derivatives to healthy mice, followed by monitoring for lethality. […] AmBAU was drastically less toxic with >50% lethality not being reached until the 64 mg/kg dosage group.

[4] = test system: human erythrocytes; assay type: cell-based; details: for EH90 as multiple of that observed with AmB: human
Experimental: as §1, §2

[5] = test system: C. albicans; test: Mouse model of disseminated candidiasis, kidney fungal burden; assay type: in vivo; details: neutropenic mice; for reduction of kidney fungal burden relative to AmB: single intraperitoneal 16 mg/kg dose, 24 hours post inoculation; for reducing the fungal burden present in the kidneys, compared with AmB (in words): single intraperitoneal dose, all three tested doses (1, 4, and 16 mg/kg)
Experimental: FIG. 39 is a group of three graphs depicting kidney fungal load (colony forming units, cfu) in neutropenic mice inoculated intravenously with C. albicans and then treated two hours later with a single intraperitoneal dose of vehicle control, AmB, AmBMU, or AmBAU. FIG. 39A, 1 mg/kg AmB, AmBMU, or AmBAU. FIG. 39B, 4 mg/kg AmB, AmBMU, or AmBAU. FIG. 39C, 16 mg/kg AmB, AmBMU, or AmBAU.
The antifungal efficacies of AmBMU and AmBAU were tested in a mouse model of disseminated candidiasis. In this experiment neutropenic mice were infected with C. albicans via the tail vein, and then 2 hours post infection the mice were treated with a single intraperitoneal injection of AmB, AmBMU, or AmBAU. Then 2, 6, 12, and 24 hours post infection the mice were sacrificed, and the fungal burden present in their kidneys was quantified. […] The differences were most pronounced at the 16 mg/kg dose at 24 hours post inoculation. Relative to AmB, AmBMU reduced the fungal burden by 1.2 log units (p≤0.001), and AmBAU reduced the fungal burden by nearly 3 log units (p≤0.0001).

[6] = test system: yeast; details: in vitro studies; cited from earlier work
[7] = Saccharomyces cerevisiae, broth microdilution
[8] = Candida albicans, broth microdilution

SMILES: C[C@@H]1[C@H](O)[C@@H](C)/C=C/C=C/C=C/C=C/C=C/C=C/C=C/[C@H](O[C@@H]2O[C@H](C)[C@@H](O)[C@H](N)[C@@H]2O)C[C@@H]2O[C@](O)(C[C@@H](O)C[C@@H](O)[C@H](O)CC[C@@H](O)C[C@@H](O)CC(=O)O[C@H]1C)C[C@H](O)[C@H]2C(=O)O [AmB, amphotericin B]
MIC ([1]; broth microdilution): 0.5 µM (≈ 0.462 µg/mL) | MIC ([2]; broth microdilution): 0.25 µM (≈ 0.231 µg/mL) | lethality ([3]; single intravenous 4 mg/kg): All mice in the 4 mg/kg AmB dosage group died within seconds

SMILES: CC1OC(O[C@H]2/C=C/C=C/C=C/C=C/C=C/C=C/C=C/[C@H](C)[C@@H](O)[C@@H](C)[C@H](C)OC(=O)C[C@H](O)C[C@H](O)CC[C@@H](O)[C@H](O)C[C@H](O)C[C@]3(O)C[C@H](O)[C@@H](NC(=O)NCCN)C(C2)O3)C(O)C(N)C1O (stereo partly drawn) [AmBAU]
MIC ([1]; Saccharomyces cerevisiae): 0.125 µM (≈ 0.123 µg/mL) | cell-killing activity / toxicity towards human red blood cells (in words) [4]: drastically decreased toxicity towards red blood cells | EH90 (μM) red blood cells ([4]; amount of compound required to cause 90% hemolysis of human erythrocytes): >500 µM | MIC ([2]; Candida albicans): 0.25 µM (≈ 0.245 µg/mL) | reduction of kidney fungal burden relative to AmB [5]: ~3 log units | reducing the fungal burden present in the kidneys, compared with AmB (in words) [5]: substantially more effective than AmB | dosage group at which >50% lethality was reached ([3]; single intravenous administration): 64 mg/kg

MIC [1, 7]: 3 µM (≈ 3.03 µg/mL) | EH90 as multiple of that observed with AmB [4]: more than 30 × | MIC [2, 8]: 1 µM (≈ 1.01 µg/mL)
SMILES: CC1OC(O[C@H]2/C=C/C=C/C=C/C=C/C=C/C=C/C=C/[C@H](C)[C@@H](O)[C@@H](C)[C@H](C)OC(=O)C[C@H](O)C[C@H](O)CC[C@@H](O)[C@H](O)C[C@H](O)C[C@]3(O)C[C@H](O)[C@@H](NC(=O)NCCC(=O)O)C(C2)O3)C(O)C(N)C1O (stereo partly drawn) [AmBCU]
cell-killing activity / toxicity towards human red blood cells (in words) [4]: drastically decreased toxicity towards red blood cells

MIC ([1]; broth microdilution): 0.25 µM (≈ 0.234 µg/mL) | EH90 (μM) red blood cells [4]: 15.32 ± 3.39 µM
SMILES: CNC(=O)[C@H]1[C@@H]2C[C@@H](O[C@@H]3O[C@H](C)[C@@H](O)[C@H](N)[C@@H]3O)/C=C/C=C/C=C/C=C/C=C/C=C/C=C/[C@H](C)[C@@H](O)[C@@H](C)[C@H](C)OC(=O)C[C@H](O)C[C@H](O)CC[C@@H](O)[C@H](O)C[C@H](O)C[C@](O)(C[C@@H]1O)O2 [AmBMA, reference compound]

SMILES: COC(=O)[C@H]1[C@@H]2C[C@@H](O[C@@H]3O[C@H](C)[C@@H](O)[C@H](N)[C@@H]3O)/C=C/C=C/C=C/C=C/C=C/C=C/C=C/[C@H](C)[C@@H](O)[C@@H](C)[C@H](C)OC(=O)C[C@H](O)C[C@H](O)CC[C@@H](O)[C@H](O)C[C@H](O)C[C@](O)(C[C@@H]1O)O2 [AmBME, reference compound]
MIC ([1]; broth microdilution): 0.25 µM (≈ 0.235 µg/mL) | EH90 (μM) red blood cells [4]: 30.67 ± 5.38 µM | hemolysis concentration relative to AmB [4]: one third

SMILES: CNC(=O)N[C@H]1C2C[C@@H](OC3OC(C)C(O)C(N)C3O)/C=C/C=C/C=C/C=C/C=C/C=C/C=C/[C@H](C)[C@@H](O)[C@@H](C)[C@H](C)OC(=O)C[C@H](O)C[C@H](O)CC[C@@H](O)[C@H](O)C[C@H](O)C[C@](O)(C[C@@H]1O)O2 (stereo partly drawn) [AmBMU]
MIC [1, 7]: 0.25 µM (≈ 0.238 µg/mL) | cell-killing activity / toxicity towards human red blood cells (in words) [4]: drastically decreased toxicity towards red blood cells | EH90 as multiple of that observed with AmB [4]: greater than 45 × | MIC [2, 8]: 0.5 µM (≈ 0.476 µg/mL) | reduction of kidney fungal burden relative to AmB [5]: 1.2 log units | reducing the fungal burden present in the kidneys, compared with AmB (in words) [5]: substantially more effective than AmB | lethality ([3]; single intravenous 64 mg/kg): survived with no observable toxicity

SMILES: CC1C=CC=CC=CC=CC=CC=CC=CC(OC2CC(N)C(O)C(C)O2)CC2OC(O)(CC(O)CC(O)C(O)CCC(O)CC(O)CC(=O)OC(C)C(C)C1O)CC(O)C2C(=O)O (stereo not drawn) [C2′deOAmB]
toxicity to yeast [6]: toxic to yeast
